Laboratory results taken from article PMC12481929, “Oral delivery of teriparatide utilizing biocompatible transferrin-engineered MOF nanoparticles for osteoporosis therapy” (Materials Today Bio, 2025).

Assays:
[1] = In vivo pharmacokinetics, serum TRP by ELISA; conditions: osteoporotic mice
Procedure: The pharmacokinetics and pharmacodynamics of M@P@T NPs were evaluated using the osteoporosis mice model. Mice were randomly divided into three experimental groups, with five mice per group: TRP SC, M@P, and M@P@T. M@P NPs (200 μg kg^−1) and M@P@T NPs (200 μg kg^−1) were administered by oral gavage, while TRP (20 μg kg^−1) was injected subcutaneously. Serum TRP concentrations were measured using an ELISA kit. Blood samples were collected at 0, 0.5, 1, 1.5, 2, 3, 6, 8, and 12 h post-administration to determine TRP concentration. The area under the serum TRP concentration−time curve (AUC) was calculated to determine the relative bioavailability of M@P@T. The pharmacokinetic parameters of M@P@T were then compared to those of TRP SC and M@P groups.

[2] = test system: osteoporosis model mice (OVX); assay: New bone formation in vivo, micro-CT of femurs; conditions: one month, M@P@T 200 μg kg^−1 oral, TRP 20 μg kg^−1 SC daily
Procedure: This study was approved by the Animal Ethics Committee of Wuhan University (ethics number WP20230395), and all animal experiments were conducted in accordance with the Regulations on the Management of Experimental Animals in China and the guidelines of the Committee for Animal Care and Use at Wuhan University. In this study, 6-week-old female C57 mice (purchased from Beijing HFK Bioscience Co., Ltd.) were randomly divided into five groups (Sham, OVX, M@P, M@P@T, and TRP SC). Bilateral ovariectomy was performed via a dorsal incision to establish an osteoporosis model. In the Sham group, the same volume of fat tissue was removed bilaterally. After surgery, the mice were regularly given penicillin and pain medication. All mice were housed in a comfortable environment at 22–25 °C and […] and had free access to food and water. The successful construction of the osteoporosis model was confirmed two months after surgery via micro–computed tomography (micro-CT).
To validate the in vivo efficacy of the NPs, we measured various bone parameters related to the formation of new bone and its internal structure using micro-CT (SkyScan 1276) following the ASBMR reporting standards. […] The efficacy of new bone formation was assessed by comparing these parameters determined from the control and treatment groups.

**Q.** For `CC[C@H](C)[C@H](NC(=O)[C@H](CCC(=O)O)NC(=O)[C@H](CO)NC(=O)[C@@H](NC(=O)[C@@H](N)CO)C(C)C)C(=O)N[C@@H](CCC(N)=O)C(=O)N[C@@H](CC(C)C)C(=O)N[C@@H](CCSC)C(=O)N[C@@H](Cc1cnc[nH]1)C(=O)N[C@@H](CC(N)=O)C(=O)N[C@@H](CC(C)C)C(=O)NCC(=O)N[C@@H](CCCCN)C(=O)N[C@@H](Cc1cnc[nH]1)C(=O)N[C@@H](CC(C)C)C(=O)N[C@@H](CC(N)=O)C(=O)N[C@@H](CO)C(=O)N[C@@H](CCSC)C(=O)N[C@@H](CCC(=O)O)C(=O)N[C@@H](CCCN=C(N)N)C(=O)N[C@H](C(=O)N[C@@H](CCC(=O)O)C(=O)N[C@@H](Cc1c[nH]c2ccccc12)C(=O)N[C@@H](CC(C)C)C(=O)N[C@@H](CCCN=C(N)N)C(=O)N[C@@H](CCCCN)C(=O)N[C@@H](CCCCN)C(=O)N[C@@H](CC(C)C)C(=O)N[C@@H](CCC(N)=O)C(=O)N[C@@H](CC(=O)O)C(=O)N[C@H](C(=O)N[C@@H](Cc1cnc[nH]1)C(=O)N[C@@H](CC(N)=O)C(=O)N[C@@H](Cc1ccccc1)C(=O)O)C(C)C)C(C)C` [TRP, teriparatide], which “time to return to the baseline level” value ([1]; 20 μg kg^−1 SC) is on record?
**A.** ≤ 2 h

**Q.** And the Tmax ([1]; mouse, in vivo, 20 ug/kg, 20 μg kg^−1 SC, read-out: time of peak plasma concentration of TRP)?
**A.** 30 min

**Q.** What about the AUC(0-t) ([1]; mouse, sc, 20 ug/kg, n = 5, TRP 20 µg/kg s.c., M@P and M@P@T 200 µg/kg oral, serum TRP ELISA, 0-12 h, mean ± SD) of the same compound?
**A.** 0.117 ± 0.0112 ng·h/mL

**Q.** What about the “F, relative bioavailability” value ([1]; n = 5, relative to TRP 20 µg/kg s.c., oral 200 µg/kg) of the same compound?
**A.** 100%

**Q.** And the “new bone formation (3D reconstruction)” value [2]?
**A.** more new bone formation than the other groups
